From paper PMC4503722, “Novel Phenotypic Outcomes Identified for a Public Collection of Approved Drugs from a Publicly Accessible Panel of Assays” (PLoS ONE, 2015)
Where a SMILES comes first, the peptide text is derived from it. Bridges are numbered along the chain shown (N, C = ends). [ ]: non-standard residue; d: D form. hArg = N=C(N)NCCCC[C@H](N)C(=O)O; Mpa = O=C(O)CCS

Experiments:
[1] = system: endothelial tube formation in co-cultures of ECFCs and ADSCs treated with VEGF; assay: cells; type: cell-based, human; conditions: for IC50: read-out: VEGF_ADSC\ECFC Angio CD31 TubeArea summarized IC50
[2] = system: ECFC/ADSC co-culture cell nuclei number; conditions: for IC50: read-out: VEGF_ADSC\ECFC Angio Hoechst NucArea summarized IC50

| SMILES | VEGF_ADSC\ECFC Angio CD31 TubeArea IC50/EC50 [1] | VEGF_ADSC\ECFC Angio Hoechst NucArea IC50/EC50 [2] | also measured |
| --- | --- | --- | --- |
| O=C(Nc1ccc([N+](=O)[O-])cc1)Nc1ccc([N+](=O)[O-])cc1 [NCGC00166218-02] | – | – | IC50 [1]: > 10 µM; IC50 [2]: > 10 µM |
| O=[N+]([O-])c1cc(I)c(O)c(I)c1 [NCGC00166241-02] | – | – | IC50 [1]: > 10 µM; IC50 [2]: > 10 µM |
| CCCSS/C(CCO)=C(\C)N(C=O)Cc1cnc(C)nc1N [NCGC00167447-02] | > 10 µM | > 10 µM | – |
| C#C[C@]1(O)CC[C@H]2[C@@H]3CCC4=CCCC[C@@H]4[C@H]3C(=C)C[C@@]21CC [NCGC00167449-02] | > 10 µM | 9.571 µM | – |
| O=NN(CCCl)C(=O)NC1CCCCC1 [NCGC00167466-02] | > 10 µM | > 10 µM | – |
| COc1cccc(CCc2ccccc2OCC(CN(C)C)OC(=O)CCC(=O)O)c1.Cl (centres unmarked) [NCGC00167489-03] | > 10 µM | > 10 µM | – |
| COC(=O)C1=C(C)NC(C)=C(C(=O)OC(C)(C)CN(C)CCC(c2ccccc2)c2ccccc2)C1c1cccc([N+](=O)[O-])c1.Cl (centres unmarked) [NCGC00167492-03] | > 10 µM | > 10 µM | – |
| COC(=O)C1=C(C)NC(C)=C(C(=O)OCCN2CCN(C(c3ccccc3)c3ccccc3)CC2)C1c1cccc([N+](=O)[O-])c1 (centres unmarked) [NCGC00167493-04] | – | – | IC50/EC50, VEGF_ADSC\ECFC Angio CD31 TubeArea (assay number 2) [1]: > 10 µM; IC50/EC50, VEGF_ADSC\ECFC Angio Hoechst NucArea (assay number 3) [2]: > 10 µM |
| CS(=O)(=O)CCNCc1ccc(-c2ccc3ncnc(Nc4ccc(OCc5cccc(F)c5)c(Cl)c4)c3c2)o1 [NCGC00167507-04] | > 10 µM | > 10 µM | – |
| CC[C@]1(O)CC[C@H]2[C@@H]3CCC4=CCCC[C@@H]4[C@H]3CC[C@@]21C [NCGC00167514-02] | 6.2451 µM | > 10 µM | – |
| CCCCCCCCCCCCCCCCCCCCCC(=O)Nc1ccn([C@@H]2O[C@H](CO)[C@@H](O)[C@@H]2O)c(=O)n1 [NCGC00167515-02] | > 10 µM | > 10 µM | – |
| Cc1c(C)c2c(c(C)c1OC(=O)CCC(=O)O)CC[C@@](C)(CCC[C@H](C)CCC[C@H](C)CCCC(C)C)O2 [NCGC00167561-03] | – | – | IC50 [1]: > 10 µM; IC50 [2]: > 10 µM |
| O=C1OC(OC(=O)c2cccnc2Nc2cccc(C(F)(F)F)c2)c2ccccc21 (centres unmarked) [NCGC00167754-02] | > 10 µM | > 10 µM | – |
| COc1ccccc1OCCNCC(O)COc1cccc2[nH]c3ccccc3c12 (centres unmarked) [NCGC00167832-06] | > 10 µM | > 10 µM | – |
| CCCCN(CCCC)CCC(O)c1cc2c(Cl)cc(Cl)cc2c2cc(C(F)(F)F)ccc12 (centres unmarked) [NCGC00179250-03] | > 10 µM | > 10 µM | – |
| CC(=O)C[C@H]1[C@H](O[C@H]2[C@H](OC(C)C(=O)N[C@@H](C)C(=O)N[C@H](CCC(=O)N[C@@H](CCCCN)C(=O)N[C@H](C)C(=O)O)C(N)=O)[C@@H](NC(=O)O)C(O)O[C@@H]2CO)O[C@H](CO)[C@@H](O)[C@@H]1O (some centres unmarked) [NCGC00181761-01] | > 10 µM | > 10 µM | – |
| Cc1ccc(Nc2c(F)cccc2Cl)c(CC(=O)O)c1 [NCGC00181795-02] | > 10 µM | > 10 µM | – |
| CN(C)CCOC1=Cc2ccccc2Sc2ccc(Cl)cc21 [NCGC00182081-04] | > 10 µM | > 10 µM | – |
| COC(=O)N[C@H](C(=O)N[C@@H](Cc1ccccc1)[C@@H](O)CN(Cc1ccc(-c2ccccn2)cc1)NC(=O)[C@@H](NC(=O)OC)C(C)(C)C)C(C)(C)C [NCGC00182552-02] | > 10 µM | > 10 µM | – |

| SMILES | VEGF_ADSC\ECFC Angio CD31 TubeArea IC50/EC50 [1] | VEGF_ADSC\ECFC Angio Hoechst NucArea IC50/EC50 [2] | also measured |
| --- | --- | --- | --- |
| O=C1CC[C@H](C(=O)N2CCCCC2)N1 [NCGC00182992-01] | > 10 µM | > 10 µM | – |
| CC(=O)c1ccc(OCC(=O)N2CCCCC2)cc1 [NCGC00183022-01] | > 10 µM | > 10 µM | – |
| CCOC(=O)NC(C)(C)Cc1ccc(Cl)cc1 [NCGC00183835-01] | – | – | IC50 [1]: > 10 µM; IC50 [2]: > 10 µM |
| O=C1NC2CCCCN2C12CCN(CCCN1c3ccccc3CCc3ccc(Cl)cc31)CC2 (centres unmarked) [NCGC00183853-01] | > 10 µM | > 10 µM | – |
| CCCCc1oc2ccc(NS(C)(=O)=O)cc2c1C(=O)c1ccc(OCCCN(CCCC)CCCC)cc1 [NCGC00188863-02] | 2.754 µM | 7.561 µM | – |
| CCN[C@@H](C)Cc1cccc(C(F)(F)F)c1 [NCGC00247710-02] | > 10 µM | > 10 µM | – |
| Cc1[nH]cnc1C[C@H]1CCc2c(C)c3ccccc3n2C1=O [NCGC00249415-01] | > 10 µM | > 10 µM | – |
| CC(C(O)c1ccccc1)N(C)C/C=C/c1ccccc1 (centres unmarked) [NCGC00249896-01] | > 10 µM | > 10 µM | – |
| Cc1ccc(C(=O)Oc2ccc(C(O)CNC(C)(C)C)cc2OC(=O)c2ccc(C)cc2)cc1 (centres unmarked) [NCGC00253593-01] | > 10 µM | > 10 µM | – |
| Cc1onc(-c2c(Cl)cccc2Cl)c1C(=O)Cl [NCGC00253649-01] | > 10 µM | > 10 µM | – |
| COc1cc(S(N)(=O)=O)cc(C(=O)O)c1OC [NCGC00253657-01] | > 10 µM | > 10 µM | – |
| O=C(O)C1CCC1 [NCGC00253667-01] | – | – | IC50 [1]: > 10 µM; IC50 [2]: > 10 µM |
| COc1ccc([C@@H]2Sc3ccccc3NC(=O)[C@@H]2O)cc1 [NCGC00253672-01] | > 10 µM | > 10 µM | – |
| C/C=C(/C(=C/C)c1ccc(OC(C)=O)cc1)c1ccc(OC(C)=O)cc1 [NCGC00253696-01] | – | – | IC50 [1]: > 10 µM; IC50 [2]: > 10 µM |
| COc1ccccc1N1CCN(CC(O)COc2cc(OC)c(OC)c(OC)c2)CC1 (centres unmarked) [NCGC00253761-01] | > 10 µM | > 10 µM | – |
| CC[C@]12CCCN3CCc4c(n(c5ccccc45)C(=O)C1)[C@@H]32 [NCGC00262533-02] | > 10 µM | > 10 µM | – |
| O=C1CC(c2ccc(Cl)cc2)CC(=O)N1 [NCGC00262922-01] | – | – | IC50/EC50, VEGF_ADSC\ECFC Angio CD31 TubeArea (assay number 2) [1]: > 10 µM; IC50/EC50, VEGF_ADSC\ECFC Angio Hoechst NucArea (assay number 3) [2]: > 10 µM |
| NC(=O)[C@@H]1CSSCCC(=O)N[C@@H](CCCCN=C(N)N)C(=O)NCC(=O)N[C@@H](CC(=O)O)C(=O)N[C@@H](Cc2c[nH]c3ccccc23)C(=O)N2CCC[C@H]2C(=O)N1 [NCGC00263524-01] ([Mpa][hArg]GDWPC-NH2; disulfide 1-7) | > 10 µM | > 10 µM | – |
